Test results reported in paper PMC8160813, “Design, Synthesis, and Evaluation of Dihydropyranopyrazole Derivatives as Novel PDE2 Inhibitors for the Treatment of Alzheimer’s Disease” (Molecules, 2021).

Molecular target: T1, PDE2A (catalytic domain, 580–919) (Homo sapiens, UniProt O00408)
T1 construct: made in house; host or cells: E. coli BL21 (CodonPlus)
Experiment: In vitro PDE2 enzymatic inhibition assay (3H-cGMP substrate)
Type: biochemical
Settings: for inhibition at 0.5 µM / inhibition at 0.1 µM / Inhibition Ratio (%) 0.5 μM: PDE2; for inhibition at 0.5 µM / Inhibition Ratio (%) 0.5 μM: compound at 0.5 μM; for inhibition at 0.5 µM: read-out: Inhibition Ratio (%) 0.5 μM; for inhibition at 0.1 µM: compound at 0.1 μM, read-out: Inhibition Ratio (%) 0.1 μM; for IC50: means ± SD of three experiments, 3H-cGMP, 25 °C, 15 min, read-out: IC50 (nM) against PDE2
Description: Purification and expression of the recombinant pET15b-PDE2A plasmid (catalytic domain, 580–919) was performed following our previously reported method. The plasmid pET15b-PDE2A (catalytic domain, 580–919) was transferred to thawed competent E. coli BL21 cells (CodonPlus, Agilent Technologies, Santa Clara, CA, USA), which were grown in 2XYT medium with 100 μg/mL ampicillin and 20 μg/mL chloramphenicol at 37 °C until OD600 = 0.6–0.8. Then, 0.1 mM isopropylthiogalactoside was added for induction, and protein expression was induced by continuing to grow the cells at 16 °C for 24 h. After that, bacteria were collected by centrifugation and frozen overnight at −20 °C. The bacteria containing the recombinant plasmid of the target protein were subjected to cell disruption and passed through a Ni-NTA agarose affinity column, Q-Sepharose ion-exchange column and other steps. The purity can be 95% or more, and a typical purification batch produces 10–20 mg of PDE2A protein from 1.0 L of cell culture.
Using the appropriate concentration of ^3H-cGMP as the substrate, different compound solutions were added to the test group, DMSO was added to the negative control and blank control groups, and EHNA was added to the positive control group, followed by protein solution (the proteins were all diluted with Assay Buffer); Assay Buffer was added to the blank group. The enzymatic reaction was performed at room temperature (25 °C) for 15 min, and then, 0.2 M ZnSO4 was added to inactivate PDE2 and to stop the reaction. Then, 0.2 N Ba(OH)2 solution was added to precipitate the reaction product, and unreacted ^3H-cGMP remained in the supernatant. After mixing the system, it was centrifuged. The radioactivity of the supernatant was measured with a liquid scintillation counter, and the inhibitory activity of the compound against PDE2 was calculated. The above test was repeated three times (the IC50 test generally used 9 concentrations, and the single-point test was directly diluted with DMSO to the required concentration).

T1 sequence (O00408 580-919): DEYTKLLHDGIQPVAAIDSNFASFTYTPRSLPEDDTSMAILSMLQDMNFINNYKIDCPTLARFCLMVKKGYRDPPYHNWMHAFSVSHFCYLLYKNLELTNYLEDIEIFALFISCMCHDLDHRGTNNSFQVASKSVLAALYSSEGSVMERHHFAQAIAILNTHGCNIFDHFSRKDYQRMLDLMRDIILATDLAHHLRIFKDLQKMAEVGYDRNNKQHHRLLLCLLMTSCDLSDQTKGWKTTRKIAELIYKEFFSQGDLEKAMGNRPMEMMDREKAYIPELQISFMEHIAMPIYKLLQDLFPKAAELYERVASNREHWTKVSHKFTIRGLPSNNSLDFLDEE

| SMILES | inhibition at 0.5 µM | further results |
| --- | --- | --- |
| COc1ccc(OCc2ccc(C(F)(F)F)cc2)c(C2C(C#N)=C(N)Oc3[nH]nc(C)c32)c1 (single isomer, unassigned; (-)) [(−)-11h] | 87.3% | PDE2 inhibitory activity of resolved isomer (in words) (after chiral resolution of 11h): almost inactive |
| COc1ccc(OC(=O)CCc2ccc(Cl)cc2)c(C2C(C#N)=C(N)Oc3[nH]nc(C)c32)c1 (centres unmarked) [Compound 8c, 2-(6-Amino-5-cyano-3-methyl-1,4-dihydropyrano[2,3-c]pyrazol-4-yl)-4-methoxyphenyl-3-(4-chlorophenyl)propanoate] | 4.12% |  |
| COc1cc(OCc2ccc(C(F)(F)F)cc2)cc(C2C(C#N)=C(N)Oc3[nH]nc(C)c32)c1 (centres unmarked) [Compound 4b, 6-Amino-4-(3-methoxy-5-((4-(trifluoromethyl)benzyl)oxy)phenyl)-3-methyl-1,4-dihydropyrano[2,3-c]pyrazole-5-carbonitrile] | 14.1% |  |
| COc1cc(OCc2ccc(Cl)cc2)cc(C2C(C#N)=C(N)Oc3[nH]nc(C)c32)c1 (centres unmarked) [Compound 4c, 6-Amino-4-(3-((4-chlorobenzyl)oxy)-5-methoxyphenyl)-3-methyl-1,4-dihydropyrano[2,3-c]pyrazole-5-carbonitrile] | 43.4% |  |
| COc1ccc(OCc2ccc(Cl)cc2)c(C2C(C#N)=C(N)Oc3[nH]nc(C)c32)c1 (centres unmarked) [Compound 11f, 6-Amino-4-(2-((4-chlorobenzyl)oxy)-5-methoxyphenyl)-3-methyl-1,4-dihydropyrano[2,3-c]pyrazole-5-carbonitrile] | 79.2% | inhibition at 0.1 µM: 48.1%; IC50: 115 ± 1.3 nM |
| COc1ccc(C2C(C#N)=C(N)Oc3[nH]nc(C)c32)c(OCc2ccccc2)c1 (centres unmarked) [Compound 11b, 6-Amino-4-(2-(benzyloxy)-4-methoxyphenyl)-3-methyl-1,4-dihydropyrano [2,3-c] pyrazole-5-carbonitrile] | 14.3% |  |
| COc1ccc(C2C(C#N)=C(N)Oc3[nH]nc(C)c32)c(OCc2ccc(Cl)cc2)c1 (centres unmarked) [Compound 11c, 6-Amino-4-(2-((4-chlorobenzyl)oxy)-4-methoxyphenyl)-3-methyl-1,4-dihydropyrano[2,3-c]pyrazole-5-carbonitrile] | 29% |  |
| COc1ccc(OC(=O)CCCc2ccc(Cl)cc2)c(C2C(C#N)=C(N)Oc3[nH]nc(C)c32)c1 (centres unmarked) [Compound 8d, 2-(6-Amino-5-cyano-3-methyl-1,4-dihydropyrano[2,3-c]pyrazol-4-yl)-4-methoxyphenyl-4-(4-chlorophenyl)butanoate] | 6.12% |  |
| COc1ccc(COc2cc(OC)ccc2C2C(C#N)=C(N)Oc3[nH]nc(C)c32)cc1 (centres unmarked) [Compound 11a, 6-Amino-4-(4-methoxy-2-((4-methoxybenzyl)oxy)phenyl)-3-methyl-1,4-dihydropyrano[2,3-c]pyrazole-5-carbonitrile] | 27% |  |
| COc1ccc([C@H]2C(C#N)=C(N)Oc3[nH]nc(C)c32)cc1OCc1ccc(Cl)cc1 [(R)-LZ77] | 67.5% | inhibition at 0.1 µM: 30.4%; IC50: 261 ± 11.2 nM |
| COc1ccc(OCc2ccccc2)c(C2C(C#N)=C(N)Oc3[nH]nc(C)c32)c1 (centres unmarked) [Compound 11d, 6-Amino-4-(2-(benzyloxy)-5-methoxyphenyl)-3-methyl-1,4-dihydropyrano [2,3-c] pyrazole-5-carbonitrile] | 17.7% |  |

The next lines start with results.

| inhibition at 0.5 µM | SMILES | further results |
| --- | --- | --- |
| 48.8% | COc1ccc(OCc2ccc(OC(F)(F)F)cc2)c(C2C(C#N)=C(N)Oc3[nH]nc(C)c32)c1 (centres unmarked) [Compound 11i, 6-Amino-4-(5-methoxy-2-((4-(trifluoromethoxy)benzyl)oxy)phenyl)-3-methyl-1,4-dihydropyrano[2,3-c]pyrazole-5-carbonitrile] |  |
| 17.4% | Cc1n[nH]c2c1C(c1cc(OC(F)(F)F)ccc1OCc1ccc(C(F)(F)F)cc1)C(C#N)=C(N)O2 (centres unmarked) [Compound 11p, 6-Amino-3-methyl-4-(5-(trifluoromethoxy)-2-((4-(trifluoromethyl)benzyl)oxy)phenyl)-1,4-dihydropyrano[2,3-c]pyrazole-5-carbonitrile] |  |
| 10.3% | COc1cc(C2C(C#N)=C(N)Oc3[nH]nc(C)c32)c(OCc2ccc(C(F)(F)F)cc2)cc1Cl (centres unmarked) [Compound 11t, 6-Amino-4-(4-chloro-5-methoxy-2-((4-(trifluoromethyl)benzyl)oxy)phenyl)-3-methyl-1,4-dihydropyrano[2,3-c]pyrazole-5-carbonitrile] |  |
| 8.2% | COc1ccc(OCCCc2ccc(C(F)(F)F)cc2)c(C2C(C#N)=C(N)Oc3[nH]nc(C)c32)c1 (centres unmarked) [Compound 11o, 6-Amino-4-(5-methoxy-2-(3-(4-(trifluoromethyl)phenyl)propoxy)phenyl)-3-methyl-1,4-dihydropyrano[2,3-c]pyrazole-5-carbonitrile] |  |
| 13.4% | Cc1n[nH]c2c1C(c1cc(OCc3ccc(C(F)(F)F)cc3)ccc1OCc1ccc(C(F)(F)F)cc1)C(C#N)=C(N)O2 (centres unmarked) [Compound 11l, 6-Amino-4-(2,5-bis((4-(trifluoromethyl)benzyl)oxy)phenyl)-3-methyl-1,4-dihydropyrano[2,3-c]pyrazole-5-carbonitrile] |  |
| 0% | Cc1n[nH]c2c1C(c1cc(C(C)(C)C)ccc1OCc1ccc(C(F)(F)F)cc1)C(C#N)=C(N)O2 (centres unmarked) [Compound 11j, 6-Amino-4-(5-(tert-butyl)-2-((4-(trifluoromethyl)benzyl)oxy)phenyl)-3-methyl-1,4-dihydropyrano[2,3-c]pyrazole-5-carbonitrile] | Inhibition Ratio (%) 0.5 μM: no inhibition |
| 87.3% | COc1ccc(OCc2ccc(C(F)(F)F)cc2)c(C2C(C#N)=C(N)Oc3[nH]nc(C)c32)c1 (racemic) [Compound 11h, 6-Amino-4-(5-methoxy-2-((4-(trifluoromethyl)benzyl)oxy)phenyl)-3-methyl-1,4-dihydropyrano[2,3-c]pyrazole-5-carbonitrile] | inhibition at 0.1 µM: 63.3%; IC50: 75.5 ± 2 nM |
| 75.3% | COc1ccc(OCc2ccc(C(F)(F)F)cc2)c(C2C(C#N)=C(N)Oc3[nH]nc(-c4ccccc4)c32)c1 (centres unmarked) [Compound 11s, 6-Amino-4-(5-methoxy-2-((4-(trifluoromethyl)benzyl)oxy)phenyl)-3-phenyl-1,4-dihydropyrano[2,3-c]pyrazole-5-carbonitrile] | inhibition at 0.1 µM: 46.3%; IC50: 154 ± 6.2 nM |
| 72% | Cc1ccc(OCc2ccc(C(F)(F)F)cc2)c(C2C(C#N)=C(N)Oc3[nH]nc(C)c32)c1 (centres unmarked) [Compound 11k, 6-Amino-3-methyl-4-(5-methyl-2-((4-(trifluoromethyl)benzyl)oxy)phenyl)-1,4-dihydropyrano[2,3-c]pyrazole-5-carbonitrile] | inhibition at 0.1 µM: 38.3%; IC50: 154 ± 3.3 nM |
| 20.7% | COc1ccc(OCCc2ccc(C(F)(F)F)cc2)c(C2C(C#N)=C(N)Oc3[nH]nc(C)c32)c1 (centres unmarked) [Compound 11n, 6-Amino-4-(5-methoxy-2-(4-(trifluoromethyl)phenethoxy)phenyl)-3-methyl-1,4-dihydropyrano[2,3-c]pyrazole-5-carbonitrile] |  |
| 0% | Cc1n[nH]c2c1C(c1cc(O)ccc1OCc1ccc(C(F)(F)F)cc1)C(C#N)=C(N)O2 (centres unmarked) [Compound 11m, 6-Amino-4-(5-hydroxy-2-((4-(trifluoromethyl)benzyl)oxy)phenyl)-3-methyl-1,4-dihydropyrano[2,3-c]pyrazole-5-carbonitrile] | Inhibition Ratio (%) 0.5 μM: no inhibition |
